Patent US20240059671A1, “TYROSINE KINASE 2 (TYK2) DEGRADATION COMPOUNDS AND METHODS OF USE” (CULLGEN (SHANGHAI), INC., priority 2020, published 2024)
Blank lines part the entries; values can stand above or below the compound they belong to.

Molecular target: TYK2 (Homo sapiens, UniProt P29597)
Test: TYK2 protein degradation in NOMO-1 cells by immunoblotting
Assay type: cell-based
Set-up: endogenous in cells
Settings: NOMO-1 cells
In short: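 Read-out was densitometry of chemiluminescent TYK2 immunoblot bands from RIPA lysates after SDS-PAGE. Before lysis, NOMO-1 cells cultured in RPMI 1640 plus 10% FBS were treated for 16 h at 0.1, 1, 10, 100 and 1000 nM.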

Sequence of TYK2 (P29597 whole entry): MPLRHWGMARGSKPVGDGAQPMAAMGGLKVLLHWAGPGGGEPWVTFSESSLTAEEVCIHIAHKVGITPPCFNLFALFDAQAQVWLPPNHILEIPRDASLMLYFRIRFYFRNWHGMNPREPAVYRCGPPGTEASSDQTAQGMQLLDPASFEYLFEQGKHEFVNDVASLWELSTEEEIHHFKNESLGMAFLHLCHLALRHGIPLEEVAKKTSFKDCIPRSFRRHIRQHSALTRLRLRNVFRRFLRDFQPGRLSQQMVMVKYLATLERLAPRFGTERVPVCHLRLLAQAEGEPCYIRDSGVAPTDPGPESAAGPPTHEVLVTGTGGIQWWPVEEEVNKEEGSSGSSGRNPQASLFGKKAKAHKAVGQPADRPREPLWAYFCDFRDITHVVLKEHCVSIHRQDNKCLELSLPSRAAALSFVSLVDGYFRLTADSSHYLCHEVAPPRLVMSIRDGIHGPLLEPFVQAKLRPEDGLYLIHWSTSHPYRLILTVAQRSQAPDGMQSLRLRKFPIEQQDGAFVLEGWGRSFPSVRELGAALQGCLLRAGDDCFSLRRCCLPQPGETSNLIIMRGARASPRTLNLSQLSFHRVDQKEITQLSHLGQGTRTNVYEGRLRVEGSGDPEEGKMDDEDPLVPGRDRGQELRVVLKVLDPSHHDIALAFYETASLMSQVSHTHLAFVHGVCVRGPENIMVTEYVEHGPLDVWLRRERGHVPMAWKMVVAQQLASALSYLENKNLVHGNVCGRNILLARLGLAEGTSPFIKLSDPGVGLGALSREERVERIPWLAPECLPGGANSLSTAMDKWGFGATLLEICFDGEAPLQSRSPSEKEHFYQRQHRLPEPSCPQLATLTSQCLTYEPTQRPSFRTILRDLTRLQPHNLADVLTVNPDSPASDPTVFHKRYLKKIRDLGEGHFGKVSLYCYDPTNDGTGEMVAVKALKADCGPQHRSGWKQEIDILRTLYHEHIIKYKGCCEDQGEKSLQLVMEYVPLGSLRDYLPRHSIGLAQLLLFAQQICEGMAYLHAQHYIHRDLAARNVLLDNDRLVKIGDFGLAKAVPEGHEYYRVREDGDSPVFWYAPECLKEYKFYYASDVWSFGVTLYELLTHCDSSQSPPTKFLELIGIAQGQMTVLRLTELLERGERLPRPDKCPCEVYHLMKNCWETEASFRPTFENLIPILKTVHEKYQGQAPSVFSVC

Structure (SMILES): CNC(=O)c1nnc(Nc2ccc(CNC(=O)CCCCCCC(=O)N[C@H](C(=O)N3C[C@H](O)C[C@H]3C(=O)N[C@@H](C)c3ccc(-c4scnc4C)cc3)C(C)(C)C)cn2)cc1Nc1cccc(-c2ncn(C)n2)c1OC [CPD-131, N1-((S)-1-((2S,4R)-4-hydroxy-2-(((S)-1-(4-(4-methylthiazol-5-yl)phenyl)ethyl)carbamoyl)pyrrolidin-1-yl)-3,3-dimethyl-1-oxobutan-2-yl)-N8-((6-((5-((2-methoxy-3-(1-methyl-1H-1,2,4-triazol-3-yl)phenyl)amino)-6-(methylcarbamoyl)pyridazin-3-yl)amino)pyridin-3-yl)methyl)octanediamide]
TYK2 Degradation (NOMO-1, 10 nM): A (A: ≥60% TYK2 degradation)
TYK2 Degradation (NOMO-1, 100 nM): A (A: ≥60% TYK2 degradation)

Structure (SMILES): CNC(=O)c1nnc(Nc2ccc(CNC(=O)CCCCCCCC(=O)N[C@H](C(=O)N3C[C@H](O)C[C@H]3C(=O)N[C@@H](C)c3ccc(-c4scnc4C)cc3)C(C)(C)C)cn2)cc1Nc1cccc(-c2ncn(C)n2)c1OC [CPD-132, N1-((S)-1-((2S,4R)-4-Hydroxy-2-(((S)-1-(4-(4-methylthiazol-5-yl)phenyl)ethyl)carbamoyl)pyrrolidin-1-yl)-3,3-dimethyl-1-oxobutan-2-yl)-N9-((6-((5-((2-methoxy-3-(1-methyl-1H-1,2,4-triazol-3-yl)phenyl)amino)-6-(methylcarbamoyl)pyridazin-3-yl)amino)pyridin-3-yl)methyl)nonanediamide]
TYK2 Degradation (NOMO-1, 100 nM): A (A: ≥60% TYK2 degradation)

Structure (SMILES): CNC(=O)c1nnc(Nc2ccc(CNC(=O)CCCCCCCCC(=O)N[C@H](C(=O)N3C[C@H](O)C[C@H]3C(=O)N[C@@H](C)c3ccc(-c4scnc4C)cc3)C(C)(C)C)cn2)cc1Nc1cccc(-c2ncn(C)n2)c1OC [CPD-133, N1-((S)-1-((2S,4R)-4-hydroxy-2-(((S)-1-(4-(4-methylthiazol-5-yl)phenyl)ethyl)carbamoyl)pyrrolidin-1-yl)-3,3-dimethyl-1-oxobutan-2-yl)-N10-((6-((5-((2-methoxy-3-(1-methyl-1H-1,2,4-triazol-3-yl)phenyl)amino)-6-(methylcarbamoyl)pyridazin-3-yl)amino)pyridin-3-yl)methyl)decanediamide]
TYK2 Degradation (NOMO-1, 10 nM): A (A: ≥60% TYK2 degradation)
TYK2 Degradation (NOMO-1, 100 nM): A (A: ≥60% TYK2 degradation)

Structure (SMILES): CNC(=O)c1nnc(Nc2ccc(C#CC3CCN(C(=O)CCCC(=O)N[C@H](C(=O)N4C[C@H](O)C[C@H]4C(=O)N[C@@H](C)c4ccc(-c5scnc5C)cc4)C(C)(C)C)CC3)cn2)cc1Nc1cccc(-c2ncn(C)n2)c1OC [CPD-134, 6-((5-((1-(5-(((S)-1-((2S,4R)-4-hydroxy-2-(((S)-1-(4-(4-methylthiazol-5-yl)phenyl)ethyl)carbamoyl)pyrrolidin-1-yl)-3,3-dimethyl-1-oxobutan-2-yl)amino)-5-oxopentanoyl)piperidin-4-yl)ethynyl)pyridin-2-yl)amino)-4-((2-methoxy-3-(1-methyl-1H-1,2,4-triazol-3-yl)phenyl)amino)-N-methylpyridazine-3-carboxamide]
TYK2 Degradation (NOMO-1, 10 nM): A (A: ≥60% TYK2 degradation)
TYK2 Degradation (NOMO-1, 100 nM): A (A: ≥60% TYK2 degradation)

Structure (SMILES): CNC(=O)c1nnc(Nc2ccc(C#CC3CN(C(=O)CCCC(=O)N[C@H](C(=O)N4C[C@H](O)C[C@H]4C(=O)N[C@@H](C)c4ccc(-c5scnc5C)cc4)C(C)(C)C)C3)cn2)cc1Nc1cccc(-c2ncn(C)n2)c1OC [CPD-135, 6-((5-((1-(5-(((S)-1-((2S,4R)-4-Hydroxy-2-(((S)-1-(4-(4-methylthiazol-5-yl)phenyl)ethyl)carbamoyl)pyrrolidin-1-yl)-3,3-dimethyl-1-oxobutan-2-yl)amino)-5-oxopentanoyl)azetidin-3-yl)ethynyl)pyridin-2-yl)amino)-4-((2-methoxy-3-(1-methyl-1H-1,2,4-triazol-3-yl)phenyl)amino)-N-methylpyridazine-3-carboxamide]
TYK2 Degradation (NOMO-1, 10 nM): B (B: <60% TYK2 degradation, and >20% TYK2 degradation)
TYK2 Degradation (NOMO-1, 100 nM): A (A: ≥60% TYK2 degradation)

The next lines start with results.

TYK2 Degradation (NOMO-1, 100 nM): A (A: ≥60% TYK2 degradation)
Structure (SMILES): CNC(=O)c1nnc(Nc2ccc(CNC(=O)CCCC(=O)N[C@H](C(=O)N3C[C@H](O)C[C@H]3C(=O)N[C@@H](C)c3ccc(-c4scnc4C)cc3)C(C)(C)C)cn2)cc1Nc1cccc(-c2ncn(C)n2)c1OC [CPD-136, N1-((S)-1-((2S,4R)-4-Hydroxy-2-(((S)-1-(4-(4-methylthiazol-5-yl)phenyl)ethyl)carbamoyl)pyrrolidin-1-yl)-3,3-dimethyl-1-oxobutan-2-yl)-N5-((6-((5-((2-methoxy-3-(1-methyl-1H-1,2,4-triazol-3-yl)phenyl)amino)-6-(methylcarbamoyl)pyridazin-3-yl)amino)pyridin-3-yl)methyl)glutaramide]
TYK2 Degradation (NOMO-1, 10 nM): B (B: <60% TYK2 degradation, and >20% TYK2 degradation)

TYK2 Degradation (NOMO-1, 10 nM): C (C: ≤20% TYK2 degradation)
TYK2 Degradation (NOMO-1, 100 nM): A (A: ≥60% TYK2 degradation)
Structure (SMILES): CNC(=O)c1nnc(Nc2ccc(C(=O)NCC(=O)N[C@H](C(=O)N3C[C@H](O)C[C@H]3C(=O)N[C@@H](C)c3ccc(-c4scnc4C)cc3)C(C)(C)C)cn2)cc1Nc1cccc(-c2ncn(C)n2)c1OC [CPD-137, 6-((5-((2-(((S)-1-((2S,4R)-4-Hydroxy-2-(((S)-1-(4-(4-methylthiazol-5-yl)phenyl)ethyl)carbamoyl)pyrrolidin-1-yl)-3,3-dimethyl-1-oxobutan-2-yl)amino)-2-oxoethyl)carbamoyl)pyridin-2-yl)amino)-4-((2-methoxy-3-(1-methyl-1H-1,2,4-triazol-3-yl)phenyl)amino)-N-methylpyridazine-3-carboxamide]

TYK2 Degradation (NOMO-1, 100 nM): C (C: ≤20% TYK2 degradation)
Structure (SMILES): CNC(=O)c1nnc(Nc2ccc(C(=O)NCCC(=O)N[C@H](C(=O)N3C[C@H](O)C[C@H]3C(=O)N[C@@H](C)c3ccc(-c4scnc4C)cc3)C(C)(C)C)cn2)cc1Nc1cccc(-c2ncn(C)n2)c1OC [CPD-138, 6-((5-((3-(((S)-1-((2S,4R)-4-Hydroxy-2-(((S)-1-(4-(4-methylthiazol-5-yl)phenyl)ethyl)carbamoyl)pyrrolidin-1-yl)-3,3-dimethyl-1-oxobutan-2-yl)amino)-3-oxopropyl)carbamoyl)pyridin-2-yl)amino)-4-((2-methoxy-3-(1-methyl-1H-1,2,4-triazol-3-yl)phenyl)amino)-N-methylpyridazine-3-carboxamide]

TYK2 Degradation (NOMO-1, 10 nM): C (C: ≤20% TYK2 degradation)
TYK2 Degradation (NOMO-1, 100 nM): A (A: ≥60% TYK2 degradation)
Structure (SMILES): CNC(=O)c1nnc(Nc2ccc(C(=O)NCCCC(=O)N[C@H](C(=O)N3C[C@H](O)C[C@H]3C(=O)N[C@@H](C)c3ccc(-c4scnc4C)cc3)C(C)(C)C)cn2)cc1Nc1cccc(-c2ncn(C)n2)c1OC [CPD-139, 6-((5-((4-(((S)-1-((2S,4R)-4-Hydroxy-2-(((S)-1-(4-(4-methylthiazol-5-yl)phenyl)ethyl)carbamoyl)pyrrolidin-1-yl)-3,3-dimethyl-1-oxobutan-2-yl)amino)-4-oxobutyl)carbamoyl)pyridin-2-yl)amino)-4-((2-methoxy-3-(1-methyl-1H-1,2,4-triazol-3-yl)phenyl)amino)-N-methylpyridazine-3-carboxamide]

TYK2 Degradation (NOMO-1, 10 nM): C (C: ≤20% TYK2 degradation)
TYK2 Degradation (NOMO-1, 100 nM): A (A: ≥60% TYK2 degradation)
Structure (SMILES): CNC(=O)c1nnc(Nc2ccc(C(=O)NCCCCC(=O)N[C@H](C(=O)N3C[C@H](O)C[C@H]3C(=O)N[C@@H](C)c3ccc(-c4scnc4C)cc3)C(C)(C)C)cn2)cc1Nc1cccc(-c2ncn(C)n2)c1OC [CPD-140, 6-((5-((5-(((S)-1-((2S,4R)-4-Hydroxy-2-(((S)-1-(4-(4-methylthiazol-5-yl)phenyl)ethyl)carbamoyl)pyrrolidin-1-yl)-3,3-dimethyl-1-oxobutan-2-yl)amino)-5-oxopentyl)carbamoyl)pyridin-2-yl)amino)-4-((2-methoxy-3-(1-methyl-1H-1,2,4-triazol-3-yl)phenyl)amino)-N-methylpyridazine-3-carboxamide]

TYK2 Degradation (NOMO-1, 100 nM): A (A: ≥60% TYK2 degradation)
Structure (SMILES): CNC(=O)c1nnc(Nc2ccc(C(=O)NCCCCCC(=O)N[C@H](C(=O)N3C[C@H](O)C[C@H]3C(=O)N[C@@H](C)c3ccc(-c4scnc4C)cc3)C(C)(C)C)cn2)cc1Nc1cccc(-c2ncn(C)n2)c1OC [CPD-141, 6-((5-((6-(((S)-1-((2S,4R)-4-Hydroxy-2-(((S)-1-(4-(4-methylthiazol-5-yl)phenyl)ethyl)carbamoyl)pyrrolidin-1-yl)-3,3-dimethyl-1-oxobutan-2-yl)amino)-6-oxohexyl)carbamoyl)pyridin-2-yl)amino)-4-((2-methoxy-3-(1-methyl-1H-1,2,4-triazol-3-yl)phenyl)amino)-N-methylpyridazine-3-carboxamide]
TYK2 Degradation (NOMO-1, 10 nM): B (B: <60% TYK2 degradation, and >20% TYK2 degradation)

TYK2 Degradation (NOMO-1, 100 nM): A (A: ≥60% TYK2 degradation)
Structure (SMILES): CNC(=O)c1nnc(Nc2ccc(C(=O)NCCCCCCC(=O)N[C@H](C(=O)N3C[C@H](O)C[C@H]3C(=O)N[C@@H](C)c3ccc(-c4scnc4C)cc3)C(C)(C)C)cn2)cc1Nc1cccc(-c2ncn(C)n2)c1OC [CPD-142, 6-((5-((7-(((S)-1-((2S,4R)-4-Hydroxy-2-(((S)-1-(4-(4-methylthiazol-5-yl)phenyl)ethyl)carbamoyl)pyrrolidin-1-yl)-3,3-dimethyl-1-oxobutan-2-yl)amino)-7-oxoheptyl)carbamoyl)pyridin-2-yl)amino)-4-((2-methoxy-3-(1-methyl-1H-1,2,4-triazol-3-yl)phenyl)amino)-N-methylpridazine-3-carboxamide]
TYK2 Degradation (NOMO-1, 10 nM): B (B: <60% TYK2 degradation, and >20% TYK2 degradation)
